Like-named read-outs stand apart in the source and are kept apart here.
How the values were obtained:
Format in all cases: cell-based
alpha 2B receptor = target: T1, alpha 2B receptor (Homo sapiens, UniProt P18089); experiment: RSAT assay (Receptor Selection and Amplification Technology), Alpha 2B; settings: for Intrinsic Activity efficacy Alpha 2B: value in parentheses, ratio of maximal effect to that of brimonidine
T1 construct: expressed in transfected cells; host or cells: NIH-3T3
T1 sequence (P18089 1-450): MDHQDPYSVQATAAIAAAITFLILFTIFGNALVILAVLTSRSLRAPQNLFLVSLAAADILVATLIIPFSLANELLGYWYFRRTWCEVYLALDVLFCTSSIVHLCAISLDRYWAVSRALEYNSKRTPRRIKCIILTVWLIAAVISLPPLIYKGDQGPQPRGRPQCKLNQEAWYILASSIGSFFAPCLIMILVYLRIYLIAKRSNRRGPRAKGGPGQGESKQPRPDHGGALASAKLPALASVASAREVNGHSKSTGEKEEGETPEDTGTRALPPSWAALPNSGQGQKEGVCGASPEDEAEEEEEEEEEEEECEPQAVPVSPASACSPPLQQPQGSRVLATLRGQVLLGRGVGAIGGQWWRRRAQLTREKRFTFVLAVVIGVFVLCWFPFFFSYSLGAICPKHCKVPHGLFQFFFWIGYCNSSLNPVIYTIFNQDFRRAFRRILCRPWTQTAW
Experimental: (§1) The RSAT assay measures a receptor-mediated loss of contact inhibition that results in selective proliferation of receptor-containing cells in a mixed population of confluent cells. The increase in cell number is assessed with an appropriate transfected marker gene such as β-galactosidase, the activity of which can be easily measured in a 96-well format. Receptors that activate the G protein, Gq, elicit this response. Alpha 2 receptors, which normally couple to Gi, activate the RSAT response when coexpressed with a hybrid Gq protein that has a Gi receptor recognition domain, called Gq/i5.
(§2) NIH-3T3 cells are plated at a density of 2×10^6 cells in 15 cm dishes and maintained in Dulbecco's modified Eagle's medium supplemented with 10% calf serum. One day later, cells are cotransfected by calcium phosphate precipitation with mammalian expression plasmids encoding p-SV-β-galactosidase (5-10 μg), receptor (1-2 μg) and G protein (1-2 μg). 40 μg salmon sperm DNA may also be included in the transfection mixture. […] Cells are thawed and 100 μl added to 100 μL aliquots of various concentrations of drugs in triplicate in 96-well dishes. Incubations continue 72-96 hr at 37° C. After washing with phosphate-buffered saline, β-galactosidase enzyme activity is determined by adding 200 μL of the chromogenic substrate (consisting of 3.5 mM o-nitrophenyl-β-D-galactopyranoside and 0.5% nonidet P-40 in phosphate buffered saline), incubating overnight at 30° C. and measuring optical density at 420 nm. The absorbance is a measure of enzyme activity, which depends on cell number and reflects a receptor-mediated cell proliferation. The efficacy or intrinsic activity is calculated as a ratio of the maximal effect of the drug to the maximal effect of a standard full agonist for each receptor subtype. Brimonidine, the chemical structure of which is shown below, is used as the standard agonist for the alpha 2B and alpha 2C receptors. […] NA stands for “not active” at concentrations less than 3-10 micromolar.

alpha 2C receptor = target: T2, alpha 2C receptor (Homo sapiens, UniProt P18825); experiment: RSAT assay (Receptor Selection and Amplification Technology), Alpha 2C; settings: for Intrinsic Activity efficacy Alpha 2C: value in parentheses, ratio of maximal effect to that of brimonidine
T2 construct: expressed in transfected cells; host or cells: NIH-3T3
T2 sequence (P18825 1-462): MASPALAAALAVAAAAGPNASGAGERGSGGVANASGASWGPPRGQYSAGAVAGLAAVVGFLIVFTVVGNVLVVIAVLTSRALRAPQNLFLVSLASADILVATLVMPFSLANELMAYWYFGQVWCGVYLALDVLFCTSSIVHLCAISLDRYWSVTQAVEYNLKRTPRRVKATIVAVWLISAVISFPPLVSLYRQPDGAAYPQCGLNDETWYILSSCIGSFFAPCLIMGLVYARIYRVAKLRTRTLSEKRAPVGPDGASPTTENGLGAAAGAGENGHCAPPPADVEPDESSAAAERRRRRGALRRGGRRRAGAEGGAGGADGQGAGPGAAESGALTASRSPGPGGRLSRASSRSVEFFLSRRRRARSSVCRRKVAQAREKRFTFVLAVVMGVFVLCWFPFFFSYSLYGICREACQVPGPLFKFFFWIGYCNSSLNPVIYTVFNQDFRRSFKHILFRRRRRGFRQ
Experimental: as §1, §2

Alpha 1A = target: T3, Alpha 1A (Homo sapiens, UniProt P35348); experiment: RSAT assay (Receptor Selection and Amplification Technology), Alpha 1A; settings: value in parentheses, ratio of maximal effect of drug to maximal effect of standard full agonist
T3 sequence (P35348 1-466): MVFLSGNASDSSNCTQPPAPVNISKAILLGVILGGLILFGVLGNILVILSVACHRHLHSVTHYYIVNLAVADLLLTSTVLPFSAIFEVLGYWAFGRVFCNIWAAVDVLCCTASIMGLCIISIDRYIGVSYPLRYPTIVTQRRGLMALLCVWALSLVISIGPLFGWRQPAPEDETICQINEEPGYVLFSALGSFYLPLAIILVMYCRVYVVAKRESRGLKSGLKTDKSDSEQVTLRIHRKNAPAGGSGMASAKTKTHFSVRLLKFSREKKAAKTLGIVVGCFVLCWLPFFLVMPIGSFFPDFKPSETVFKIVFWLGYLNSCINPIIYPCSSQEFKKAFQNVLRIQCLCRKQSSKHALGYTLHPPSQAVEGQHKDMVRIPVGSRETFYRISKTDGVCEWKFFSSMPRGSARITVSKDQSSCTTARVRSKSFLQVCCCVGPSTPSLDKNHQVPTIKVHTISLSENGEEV
Experimental: as §1, §2

[1] = RSAT, transfected NIH-3T3 cells with Gq/i5, Table 1, read-out: potency nM (EC50) Alpha 2B
[2] = RSAT, transfected NIH-3T3 cells with Gq/i5, NA = not active at concentrations less than 10 micromolar, read-out: potency nM (EC50) Alpha 2C

Compound	EC50 (alpha 2B receptor; [1]) [nM]	Intrinsic Activity efficacy Alpha 2B (alpha 2B receptor; RSAT, Table 1)	EC50 (alpha 2C receptor; [2]) [nM]	Intrinsic Activity efficacy Alpha 2C (alpha 2C receptor; RSAT)	Intrinsic Activity efficacy Alpha 1A (Alpha 1A)	EC50 (alpha 2B receptor) [nM]	EC50 (alpha 2C receptor) [nM]
Cc1cccc(C(Cc2ccncc2)/N=C2/NCCO2)c1C (centres unmarked) [Compound 6, 1-(2,3-Dimethylphenyl)-N-(oxazolidin-2-ylidene)-2-(pyridin-4-yl)ethanamine]	2.1	1.1	80	0.68	0.88		
COc1ccccc1C(Cc1cccnc1)/N=C1/NCCS1 (centres unmarked) [Compound 11, 1-(2-Methoxyphenyl)-2-(pyridin-3-yl)-N-(thiazolidin-2-ylidene)ethanamine]	17	0.78	17	0.86	1.6		
COc1ccccc1C(Cc1cccnc1)/N=C1/NCCO1 (centres unmarked) [Compound 13, 1-(2-Methoxyphenyl)-N-(oxazolidin-2-ylidene)-2-(pyridin-3-yl)ethanamine]	9	0.62	23	0.66	1.12		
c1ccc(C(Cc2cnccn2)/N=C2/NCCS2)cc1 (centres unmarked) [Compound 16, 1-Phenyl-2-(pyrazin-2-yl)-N-(thiazolidin-2-ylidene)ethanamine]	170	0.97	100	0.5	1.1		
Clc1cccc(C(Cc2ccncc2)/N=C2/NCCO2)c1Cl (centres unmarked) [Compound 17, 1-(2,3-Dichlorophenyl)-N-(oxazolidin-2-ylidene)-2-(pyridin-4-yl)ethanamine]	5	1.15	30	0.65	1.3		
Clc1cccc(C(Cc2ccncc2)/N=C2/NCCS2)c1Cl (centres unmarked) [Compound 18, 1-(2,3-Dichlorophenyl)-2-(pyridin-4-yl)-N-(thiazolidin-2-ylidene)ethanamine]	2	1.1	21	0.6	1.0		
Fc1cccc(C(Cc2ccncc2)/N=C2/NCCO2)c1 (centres unmarked) [Compound 24, 1-(3-Fluorophenyl)-N-(oxazolidin-2-ylidene)-2-(pyridin-4-yl)ethanamine]	14.3	0.98	237	0.93	1.1		
Fc1cccc(C(Cc2ccncc2)N=C2NCCN2)c1 (centres unmarked) [Compound 25, 1-(3-Fluorophenyl)-N-(imidazolidin-2-ylidene)-2-(pyridin-4-yl)ethanamine]		0.68		1.03	0.97	25	16
c1ccc([C@@H](Cc2ccncc2)/N=C2/NCCO2)cc1 [Compound 30, R—N-(oxazolidin-2-ylidene)-1-phenyl-2-(pyridin-4-yl)ethanamine]		1.16		0.78	1.1	6	24
c1ccc([C@@H](Cc2ccncc2)/N=C2/NCCS2)cc1 [Compound 31, R-1-phenyl-2-(pyridin-4-yl)-N-(thiazolidin-2-ylidene)ethanamine]	21	0.64	6.1	1.0	1.1		

Reference: patent US8362022B2, “Selective subtype alpha 2 adrenergic agents and methods for use thereof” (Allergan, Inc., priority 2008, dated 2013)
